We go through 2 molecules from ChEMBL document CHEMBL3044888, “Fungicidal activity of indole derivatives against some plant pathogenic fungi” (J Pestic Sci, 2010).

Assay [1] has as its system Globisporangium debaryanum. The experiment in a line: Inhibition of peroxidase activity in Pythium debaryanum at 2 times of IC50 concentration.
For assay [2], the system named is Rhizoctonia solani. Description: In vivo effect on peroxidase activity in Rhizoctonia solani assessed as reduced sugar content per gram of dry hyphal at 0.25 times of IC50 concentration (reference value: 17.3 +/- 1 mg/g of dry weight). The class given is functional.
Assay [3] relates to Macrophomina phaseolina. Description: In vivo effect on peroxidase activity in Macrophomina phaseoli assessed as reduced sugar content per gram of dry hyphal at 1 times of IC50 concentration (reference value: 7.3 +/- 0.5 mg/g of dry weight). The class given is functional.
Assay [4] in a line: Inhibition of peroxidase activity in Pythium debaryanum. Also on record: species or system Globisporangium debaryanum.
In assay [5] the test system is Fusarium culmorum. Description: In vivo effect on peroxidase activity in Fusarium culmorum assessed as DNA content at 2 times of IC50 concentration (reference value: 49.5 +/- 1.6 mg/l). The class given is functional.
A further assay deals with T1, Peroxidase (Macrophomina phaseolina (strain MS6) (Charcoal rot fungus), UniProt K2RV19).
T1 sequence (K2RV19 whole entry): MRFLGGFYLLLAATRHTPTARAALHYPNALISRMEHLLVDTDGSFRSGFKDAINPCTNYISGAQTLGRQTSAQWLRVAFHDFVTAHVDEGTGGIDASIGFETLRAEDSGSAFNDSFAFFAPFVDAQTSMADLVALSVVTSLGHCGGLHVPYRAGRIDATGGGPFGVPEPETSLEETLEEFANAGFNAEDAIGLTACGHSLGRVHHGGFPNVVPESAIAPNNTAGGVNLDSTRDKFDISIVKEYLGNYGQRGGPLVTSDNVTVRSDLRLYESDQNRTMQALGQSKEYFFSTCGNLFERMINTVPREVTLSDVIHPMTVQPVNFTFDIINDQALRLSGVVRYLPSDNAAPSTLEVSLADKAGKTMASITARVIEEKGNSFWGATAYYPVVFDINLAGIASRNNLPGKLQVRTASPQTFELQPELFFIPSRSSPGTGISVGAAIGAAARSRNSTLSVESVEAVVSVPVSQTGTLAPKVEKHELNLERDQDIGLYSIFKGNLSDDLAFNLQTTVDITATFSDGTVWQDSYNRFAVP
The experiment in a line: Activation of peroxidase activity in Macrophomina phaseoli.

The nature of assay [6]: Inhibition of polyphenoloxidase activity in Pythium debaryanum. On the set-up: species or system Globisporangium debaryanum.
Assay [7] concerns Macrophomina phaseolina. The experiment in a line: In vivo effect on peroxidase activity in Macrophomina phaseoli assessed as non-reducing sugar content per gram of dry hyphal at 0.1 times of IC50 concentration (reference value: 12 +/- 0.8 mg/g of dry weight). The class given is functional.
For assay [8], the system named is Globisporangium debaryanum. Description: Inhibition of peroxidase activity in Pythium debaryanum at 1 times of IC50 concentration.
Assay [9] in a line: Inhibition of peroxidase activity in Fusarium culmorum.
Assay [10] concerns Rhizoctonia solani. Description: Inhibition of peroxidase activity in Rhizoctonia solani at 0.1 times of IC50 concentration.
The subject of assay [11] is Fusarium culmorum. The experiment in a line: Inhibition of peroxidase activity in Fusarium culmorum at 2 times of IC50 concentration.
A short description of assay [12]: Inhibition of polyphenoloxidase activity in Rhizoctonia solani.
Assay [13] relates to Fusarium culmorum. Description: Inhibition of peroxidase activity in Fusarium culmorum at 1 times of IC50 concentration.
Assay [14] can be described thus: Activation of polyphenoloxidase activity in Pythium debaryanum. Also on record: species or system Globisporangium debaryanum.
The target of assay [15] is T2, Peroxidase (Macrophomina phaseolina (strain MS6) (Charcoal rot fungus)) (UniProt K2RV19).
T2 sequence (whole entry): T1 sequence (K2RV19 whole entry)
The experiment in a line: Inhibition of peroxidase activity in Macrophomina phaseoli at 0.5 times of IC50 concentration.

The target of assay [16] is T2, Peroxidase (Macrophomina phaseolina (strain MS6) (Charcoal rot fungus)). Description: Inhibition of peroxidase activity in Macrophomina phaseoli at 2 times of IC50 concentration.
Assay [17] shares this target. Description: Inhibition of peroxidase activity in Macrophomina phaseoli at 1 times of IC50 concentration.

In brackets after ≈: the same amount, converted by molar mass. Some results are limits rather than exact numbers.

One may read the inhibition as the share of the control response that was lost under treatment. The IC50 is the concentration needed to halve the response being measured. The term AC50 denotes the midpoint of the concentration-response curve, whichever way the signal moves. Higher therefore signals activity only at high concentration. In the case of `CC(=O)n1c(-c2ccccc2)cc2ccccc21`, the results for the inhibition in assay [1] and in assay [8] were 25.7% and 19.1%, respectively. Besides, the Activity with Rhizoctonia solani [2] was 9.6 mg; in the assay on Macrophomina phaseolina [3], 25.8 mg; with Fusarium culmorum [5], 19.5 mg/L; in the assay with Macrophomina phaseolina [7] it was 1.7 mg. Also, the IC50 in assay [4] was 96.14 µg/mL (≈ 409 µM); in [6], 45.6 µg/mL (≈ 194 µM). At Peroxidase, this molecule yielded an AC50 below 25.1 µM.
With `c1ccc(-c2cc3ccccc3[nH]2)cc1` [2-PHENYL-1H-INDOLE], the IC50 in [9] is 49.9 µg/mL (≈ 258 µM); in assay [12], 80.3 µg/mL (≈ 416 µM). Moreover, the inhibition in the assay with Rhizoctonia solani [10] amounted to 0%; in the assay on Fusarium culmorum [11], 69.2%; in the assay on Fusarium culmorum [13], 60.1%; in [15], 26.7%; in assay [16], 54.3%; in assay [17], 40.7%. In addition, the Activity with Rhizoctonia solani [2] is 60.3 mg; with Macrophomina phaseolina [3], 5.8 mg; in the assay with Fusarium culmorum [5], 23.8 mg/L; in the assay on Macrophomina phaseolina [7] it was 2.4 mg. This molecule also registered an AC50 in [14] of 35.1 µg/mL (≈ 182 µM).
